10 molecules from patent publication US9596854B2, “Fungicidal penflufen mixtures” (priority 2010, dated 2017) can be followed below.

Read-outs that look alike come from different tables or passages of the source.

What all share (test): Synergism test: MIC of radial hyphae growth on malt extract/peptone agar, SI by Kull
Assay type in all cases: cell-based

One test has as its system Coriolus versicolor. As to conditions: for MIC: Trametes versicolor.
The subject of another test is Poria placenta. Conditions: nutrient agar, 26° C.
The next test relates to Stereum sanguinolentum. Conditions: nutrient agar, 26° C.
For another test, the system named is Coniophora puteana. Conditions: Example 8, penflufen/boron oxide, nutrient agar, 26° C.
A further test has as its system Gloeophyllum trabeum.
[1] abbreviates: Example 4, penflufen/DDAC, read-out: MIC Poria placenta.
The mark [2] stands for this setting: Example 1, penflufen/IPBC, nutrient agar, 26° C, complete suppression of radial hyphae growth, read-out: MIC against Gloeophyllum trabeum.
Where [3] appears, read: Example 9, penflufen/boric acid, nutrient agar, 26° C, read-out: MIC Gloeophyllum trabeum.
Where [4] appears, read: Example 3, penflufen/Lonzabac, nutrient agar, 26° C, read-out: MIC against Coriolus versicolor.
[5] abbreviates: Example 5, penflufen/DDA propionate.

As for `CCCCCCCCCC[N+](C)(C)CCCCCCCCCC.[Cl-]` [DDAC, Didecyldimethylammonium Chloride], the MIC – broadly, the lowest concentration found to suppress growth – with Coriolus versicolor (read-out: MIC Coriolus versicolor) turned out to be 60 µg/mL; with Poria placenta (setting [1]) it was 100 µg/mL.
Regarding `Cc1nn(C)c(F)c1C(=O)Nc1ccccc1C(C)CC(C)C` (stereo not drawn) [penflufen], the “MIC Stereum sanguinolentum” value in the test on Stereum sanguinolentum (Example 7, penflufen/Carboquat) is 3.0 ppm. Moreover, the MIC was 3 µg/mL with Stereum sanguinolentum (Stereum sanguinolentum, Example 5, penflufen/DDA propionate); 0.7 µg/mL in the test with Coniophora puteana (Coniophora puteana, read-out: MIC against Coniophora puteana); 0.3 µg/mL in the test with Gloeophyllum trabeum (setting [2]); 0.3 µg/mL with Gloeophyllum trabeum (setting [3]); 0.7 µg/mL with Gloeophyllum trabeum (Example 11, penflufen/o-phenylphenol, nutrient agar, 26° C, read-out: MIC against Gloeophyllum trabeum); 0.5 µg/mL in the test on Coriolus versicolor (setting [4]). The MIC in the test with Coriolus versicolor (Example 4, penflufen/DDAC, nutrient agar, 26° C, read-out: MIC Coriolus versicolor) was determined as 0.1 µg/mL; in the test with Poria placenta (Example 2, penflufen/DCOIT, read-out: MIC against Poria placenta), 0.3 µg/mL; in the test on Poria placenta (setting [1]), 0.1 µg/mL; in the test on Poria placenta (Example 5, penflufen/DDA propionate, read-out: MIC Poria placenta), 0.3 µg/mL; in the test on Poria placenta (Example 6, penflufen/benzalkonium chloride, read-out: MIC against Poria placenta), 0.3 µg/mL; in the test on Poria placenta (Example 7, penflufen/Carboquat, read-out: MIC Poria placenta), 0.3 µg/mL. Further, the MIC in the test with Poria placenta (Example 10, penflufen/sodium borate, read-out: MIC against Poria placenta) is 0.3 µg/mL. The “MIC Coriolus versicolor” value with Coriolus versicolor (Example 9, penflufen/boric acid, nutrient agar, 26° C) amounted to 0.1 ppm.
Take boron oxide: the “MIC against Coniophora puteana” value in the test with Coniophora puteana is on record as 100 ppm.
Consider benzalkonium chloride, for which the “MIC against Poria placenta” value in the test on Poria placenta (Example 6, penflufen/benzalkonium chloride) was determined as 100.0 ppm.
As to `O.O.O.O.O.O.O.O.O.O.[Na+].[Na+].[O-]B1OB2OB([O-])OB(O1)O2` [sodium borate], the “MIC against Poria placenta” value in the test on Poria placenta (Example 10, penflufen/sodium borate) is reported as 100.0 ppm.
For “didecylmethylpoly(oxyethyl)ammonium Propionate [DDA propionate]”, in the test on Stereum sanguinolentum (setting [5]), the “MIC Stereum sanguinolentum” value is listed as 30.0 ppm. Further, the “MIC Poria placenta” value with Poria placenta (setting [5]) is reported as 100.0 ppm.
Turning to `OB(O)O` [boric acid], the minimal inhibitory concentration (MIC) in the test on Gloeophyllum trabeum (setting [3]) was determined as 100 µg/mL; in the test on Coriolus versicolor (Example 9, penflufen/boric acid, nutrient agar, 26° C, read-out: MIC Coriolus versicolor), 100 µg/mL.
Consider `CCCCCCCCCCCCN(CCCN)CCCN` [Lonzabac, N-(3-aminopropyl)-N-dodecyl-1,3-propanediamine], for which the MIC in the test with Coriolus versicolor (setting [4]) was 30 µg/mL.
In the case of `CCCCNC(=O)OCC#CI` [IPBC, 3-Iodo-2-propynyl N-butylcarbamate], the MIC in the test with Gloeophyllum trabeum (setting [2]) was 10 µg/mL.
Take `Oc1ccccc1-c1ccccc1` [o-phenylphenol]: the MIC in the test with Gloeophyllum trabeum (read-out: MIC against Gloeophyllum trabeum) worked out at 60 µg/mL.
